Assay type in all cases: functional
Assay [1] deals with Enterococcus faecium. Briefly: Antibacterial activity against Enterococcus faecium ET6 by broth microdilution method.
Assay [2] deals with Staphylococcus aureus. The assay is described as follows: Antibacterial activity against methicillin-resistant Staphylococcus aureus SA88 by broth microdilution method. For orientation: In broth dilution the organism is exposed to a series of concentrations in liquid medium.
The subject of assay [3] is Enterococcus faecalis. The assay is described as follows: Antibacterial activity against Streptococcus faecalis by broth microdilution method.
For assay [4], the system named is Staphylococcus aureus. The assay is described as follows: Antibacterial activity against methicillin-resistant Staphylococcus aureus SA86 by broth microdilution method.
Assay [5] has as its system Staphylococcus aureus. The assay is described as follows: Antibacterial activity against methicillin-resistant Staphylococcus aureus ATCC 33591 infected in iv dosed CD-1 ICR mouse administered as single dose measured after 7 days. The conditions noted are these: ATCC 33591, iv, 168 h.
Assay [6] has as its system Staphylococcus aureus. Briefly: Antibacterial activity against methicillin-resistant Staphylococcus aureus SA11 by broth microdilution method.
For assay [7], the system named is Staphylococcus aureus. The assay is described as follows: Antibacterial activity against Staphylococcus aureus ATCC 29213 by broth microdilution method.
Assay [8] deals with Staphylococcus aureus. The assay is described as follows: Bactericidal activity against Staphylococcus aureus ATCC 29213 incubated prior to replating on agar plate measured after overnight incubation.
Assay [9] deals with Staphylococcus aureus. The assay is described as follows: Antibacterial activity against Staphylococcus aureus ATCC 29213 assessed as ratio of MIC after and before 1 serial passage at sub-MIC by broth microdilution method.
The test system of assay [10] is Enterococcus faecalis. The assay is described as follows: Bactericidal activity against Enterococcus faecalis ATCC 29212 incubated prior to replating on agar plate measured after overnight incubation.
Assay [11] deals with Staphylococcus aureus. The assay is described as follows: Antibacterial activity against methicillin-resistant Staphylococcus aureus SA14 by broth microdilution method.
Assay [12] has as its system Staphylococcus aureus. The assay is described as follows: Antibacterial activity against Staphylococcus aureus ATCC 29213 assessed as ratio of MIC after and before 7 serial passages at sub-MIC by broth microdilution method.
Assay [13] has as its system Enterococcus faecalis. Briefly: Antibacterial activity against Enterococcus faecalis ZS129 by broth microdilution method.
Assay [14] deals with Staphylococcus aureus. Briefly: Antibacterial activity against Staphylococcus aureus ATCC 29213 assessed as mutation prevention concentration measured after 72 hrs. The conditions noted are these: ATCC 29213, 72 h.
Assay [15] relates to Staphylococcus aureus. The assay is described as follows: Antibacterial activity against Staphylococcus aureus USA300 infected in Balb/c mouse model of sepsis assessed as mouse survival at 0.925 mg/kg, sc administered twice daily for 5 days starting from 1 hr post-infection relative to control.
Assay [16] concerns Enterococcus faecalis. The assay is described as follows: Antibacterial activity against Enterococcus faecalis T1027 by broth microdilution method.
Assay [17] relates to Enterococcus faecalis. The assay is described as follows: Antibacterial activity against Enterococcus faecalis ATCC 29212 by broth microdilution method.
For assay [18], the system named is Enterococcus faecium. The assay is described as follows: Antibacterial activity against Enterococcus faecium ET60 by broth microdilution method.
For assay [19], the system named is Enterococcus faecalis. The assay is described as follows: Antibacterial activity against Enterococcus faecalis ATCC 29212 assessed as mutation prevention concentration measured after 72 hrs. The conditions noted are these: ATCC 29212, 72 h.
Assay [20] relates to Staphylococcus aureus. The assay is described as follows: Antibacterial activity against methicillin-resistant Staphylococcus aureus 0114 infected in iv dosed CD-1 ICR mouse administered as single dose measured after 7 days. The following applies: Staphylococcus aureus, 0114, iv, 168 h.

In brackets after ≈: the same amount, converted by molar mass.

With `CCCCCCCCCC(=O)N[C@@H](Cc1c[nH]c2ccccc12)C(=O)N[C@H](CC(N)=O)C(=O)N[C@@H](CC(=O)O)C(=O)N[C@@H]1C(=O)NCC(=O)N[C@@H](CCCN)C(=O)N[C@@H](CC(=O)O)C(=O)N[C@H](C)C(=O)N[C@@H](CC(=O)O)C(=O)NCC(=O)N[C@H](CO)C(=O)N[C@@H]([C@@H](C)CC(=O)O)C(=O)N[C@@H](CC(=O)c2ccccc2N)C(=O)O[C@@H]1C`, the MIC (usually the lowest concentration that inhibits growth of the organism) in [1] was 4 µg/mL (≈ 2.47 µM); in [2], 0.5 µg/mL (≈ 0.309 µM); in assay [3] it was 0.5 µg/mL (≈ 0.309 µM); in assay [4] it was 0.5 µg/mL (≈ 0.309 µM); in assay [6] it was 2 µg/mL (≈ 1.23 µM); in [7] it was 0.5 µg/mL (≈ 0.309 µM). The MIC in assay [11] was 0.5 µg/mL (≈ 0.309 µM); in assay [13] it was 0.5 µg/mL (≈ 0.309 µM); in [16], 16 µg/mL (≈ 9.87 µM); in assay [17], 4 µg/mL (≈ 2.47 µM); in assay [18], 2 µg/mL (≈ 1.23 µM). Moreover, the ED50 (commonly the dose that gives a 50% effect, or the effect in half of the subjects) in [5] came to 2.14 mg/kg; in [20], 2.19 mg/kg. The figures for the MBC in assay [8] and in assay [10] were 0.25 µg/mL (≈ 0.154 µM) and 16 µg/mL (≈ 9.87 µM), respectively. In addition, the values for the Ratio in assay [9] and in [12] were 2 and 8, respectively. The MPC in [14] is 16 µg/mL; in [19] it was 32 µg/mL. Moreover, the survival at 0.925 mg/kg in assay [15] turned out to be 50%.

The values above are taken from ChEMBL document CHEMBL4402571, “Methylation of Daptomycin Leading to the Discovery of Kynomycin, a Cyclic Lipodepsipeptide Active against Resistant Pathogens” (J Med Chem, 2020).
